Measured values: patent US6352958B1, “Cycloimido-substituted benzofused heterocyclic herbicides” (FMC Corporation, priority 1997, dated 2002)

How the values were obtained:
Format in all cases: in vivo
[1] = system: wheat (Triticum aestivum var. Lew); test: Preemergence herbicidal activity, wheat; settings: Rate of Application 0.3 Kg/Ha, examined after 12-17 days
Procedure: (§1) The benzofused heterocyclic compounds of this invention were tested for pre- and postemergence herbicidal activity using a variety of crops and weeds. The test plants included soybean (Glycine max var. Winchester), field corn (Zea mays var. Pioneer 3732), wheat (Triticum aestivum var. Lew), morningglory (Ipomea lacunosa or Ipomea hederacea), velvetleaf (Abutilon theophrasti), green foxtail (Setaria viridis), Johnsongrass (Sorghum halepense), blackgrass (Aloepecurus myosuroides), common chickweed (Stellaria media), and common cocklebur (Xanthium strumarium L.).
(§2) For preemergence testing, two disposable fiber flats (8 cm×15 cm×25 cm) for each rate of application of each candidate herbicide were filled to an approximate depth of 6.5 cm with steam-sterilized sandy loam soil. The soil was leveled and impressed with a template to provide five evenly spaced furrows 13 cm long and 0.5 cm deep in each flat. Seeds of soybean, wheat, corn, green foxtail, and johnsongrass were planted in the furrows of the first flat, and seeds of velvetleaf, morningglory, common chickweed, cocklebur, and blackgrass were planted in the furrows of the second flat. The five-row template was employed to firmly press the seeds into place. A topping soil of equal portions of sand and sandy loam soil was placed uniformly on top of each flat to a depth of approximately 0.5 cm. Flats for postemergence testing were prepared in the same manner except that they were planted 9-14 days prior to the preemergence flats and were placed in a greenhouse and watered, thus allowing the seeds to germinate and the foliage to develop.
(§3) In both pre- and postemergence tests, a stock solution of the candidate herbicide was prepared by dissolving 0.27 g of the compound in 20 mL of water/acetone (50/50) containing 0.5% v/v sorbitan monolaurate. For an application rate of 3000 g/ha of herbicide a 10 mL portion of the stock solution was diluted with water/acetone (50/50) to 45 mL.
(§4) The preemergence flats were initially subjected to a light water spray. The four flats were placed two by two along a conveyor belt (i.e., the two preemergence followed by the two postemergence flats). The conveyor belt fed under a spray nozzle mounted about ten inches above the post-emergent foliage. The preemergent flats were elevated on the belt so that the soil surface was at the same level below the spray nozzle as the foliage canopy of the postemergent plants. The spray of herbicidal solution was commenced and once stabilized, the flats were passed under the spray at a speed to receive a coverage equivalent of 100 L/ha. At this coverage the application rates are those shown in the above table for the individual herbicidal solutions. The preemergence flats were watered immediately thereafter, placed in the greenhouse and watered regularly at the soil surface. The postemergence flats were immediately placed in the green-house and not watered until 24 hours after treatment with the test solution. Thereafter they were regularly watered at ground level. After 12-17 days the plants were examined and the phytotoxicity data were recorded.
(§5) Phytotoxicity data were taken as percent control. Percent control was determined by a method similar to the 0 to 100 rating system disclosed in “Research Methods in Weed Science,” 2nd ed., B. Truelove, Ed.; Southern Weed Science Society; Auburn University, Auburn, Ala., 1977.

[2] = system: common cocklebur (Xanthium strumarium L.); test: Postemergence herbicidal activity, cocklebur; settings: rate of application 0.3 Kg/Ha, rated after 12-17 days
Procedure: as §1, §2, §3, §4, §5

[3] = system: velvetleaf (Abutilon theophrasti); test: Preemergence herbicidal activity, velvetleaf; settings: Rate of Application 0.3 Kg/Ha, examined after 12-17 days
Procedure: as §1, §2, §3, §4, §5

[4] = system: velvetleaf (Abutilon theophrasti); test: Postemergence herbicidal activity, velvetleaf; settings: rate of application 0.3 Kg/Ha, rated after 12-17 days
Procedure: as §1, §2, §3, §4, §5

[5] = system: field corn (Zea mays var. Pioneer 3732); test: Postemergence herbicidal activity, corn; settings: rate of application 0.3 Kg/Ha, rated after 12-17 days
Procedure: as §1, §2, §3, §4, §5

[6] = system: green foxtail (Setaria viridis); test: Postemergence herbicidal activity, green foxtail; settings: rate of application 0.3 Kg/Ha, rated after 12-17 days
Procedure: as §1, §2, §3, §4, §5

[7] = system: morningglory (Ipomea lacunosa or Ipomea hederacea); test: Preemergence herbicidal activity, morningglory; settings: Rate of Application 0.3 Kg/Ha, examined after 12-17 days
Procedure: as §1, §2, §3, §4, §5

[8] = system: field corn (Zea mays var. Pioneer 3732); test: Preemergence herbicidal activity, corn; settings: Rate of Application 0.3 Kg/Ha, examined after 12-17 days
Procedure: as §1, §2, §3, §4, §5

[9] = system: Johnsongrass (Sorghum halepense); test: Postemergence herbicidal activity, johnsongrass; settings: rate of application 0.3 Kg/Ha, rated after 12-17 days
Procedure: as §1, §2, §3, §4, §5

[10] = system: common chickweed (Stellaria media); test: Postemergence herbicidal activity, chickweed; settings: rate of application 0.3 Kg/Ha, rated after 12-17 days
Procedure: as §1, §2, §3, §4, §5

[11] = system: morningglory (Ipomea lacunosa or Ipomea hederacea); test: Postemergence herbicidal activity, morningglory; settings: rate of application 0.3 Kg/Ha, rated after 12-17 days
Procedure: as §1, §2, §3, §4, §5

[12] = system: soybean (Glycine max var. Winchester); test: Preemergence herbicidal activity, soybean; settings: Rate of Application 0.3 Kg/Ha, examined after 12-17 days
Procedure: as §1, §2, §3, §4, §5

[13] = system: wheat (Triticum aestivum var. Lew); test: Postemergence herbicidal activity, wheat; settings: rate of application 0.3 Kg/Ha, rated after 12-17 days
Procedure: as §1, §2, §3, §4, §5

[14] = system: green foxtail (Setaria viridis); test: Preemergence herbicidal activity, green foxtail; settings: Rate of Application 0.3 Kg/Ha, examined after 12-17 days
Procedure: as §1, §2, §3, §4, §5

[15] = system: soybean (Glycine max var. Winchester); test: Postemergence herbicidal activity, soybean; settings: rate of application 0.3 Kg/Ha, rated after 12-17 days
Procedure: as §1, §2, §3, §4, §5

[16] = system: Johnsongrass (Sorghum halepense); test: Preemergence herbicidal activity, johnsongrass; settings: Rate of Application 0.3 Kg/Ha, examined after 12-17 days
Procedure: as §1, §2, §3, §4, §5

[17] = system: common chickweed (Stellaria media); test: Preemergence herbicidal activity, chickweed; settings: Rate of Application 0.3 Kg/Ha, examined after 12-17 days
Procedure: as §1, §2, §3, §4, §5

[18] = system: common cocklebur (Xanthium strumarium L.); test: Preemergence herbicidal activity, cocklebur; settings: Rate of Application 0.3 Kg/Ha, examined after 12-17 days
Procedure: as §1, §2, §3, §4, §5

## Cn1c(C(F)(F)F)cc(=O)n(-c2c(F)cc(Cl)c3cc(CCO)oc23)c1=O [Compound 239]
[1]
  PREEMERGENCE HERBICIDAL ACTIVITY (% CONTROL) WHT: 70%
[2]
  Postemergence herbicidal activity (% control) XANPE: 100%
[3]
  PREEMERGENCE HERBICIDAL ACTIVITY (% CONTROL) ABUTH: 100%
[4]
  Postemergence herbicidal activity (% control) ABUTH: 100%
[5]
  Postemergence herbicidal activity (% control) CRN: 80%
[6]
  Postemergence herbicidal activity (% control) SETVI: 100%
[7]
  PREEMERGENCE HERBICIDAL ACTIVITY (% CONTROL) IPOSS: 100%
[8]
  PREEMERGENCE HERBICIDAL ACTIVITY (% CONTROL) CRN: 90%
[9]
  Postemergence herbicidal activity (% control) SORHA: 80%
[10]
  Postemergence herbicidal activity (% control) STEME: 100%
[11]
  Postemergence herbicidal activity (% control) IPOSS: 100%
[12]
  PREEMERGENCE HERBICIDAL ACTIVITY (% CONTROL) SOY: 100%
[13]
  Postemergence herbicidal activity (% control) WHT: 60%
[14]
  PREEMERGENCE HERBICIDAL ACTIVITY (% CONTROL) SETVI: 100%
[15]
  Postemergence herbicidal activity (% control) SOY: 95%
[16]
  PREEMERGENCE HERBICIDAL ACTIVITY (% CONTROL) SORHA: 90%
[17]
  PREEMERGENCE HERBICIDAL ACTIVITY (% CONTROL) STEME: 100%

## CCCCc1cc2c(Cl)ccc(-n3c(=O)cc(C(F)(F)F)n(C)c3=O)c2o1 [Compound 225]
[1]
  PREEMERGENCE HERBICIDAL ACTIVITY (% CONTROL) WHT: 20%
[2]
  Postemergence herbicidal activity (% control) XANPE: 70%
[3]
  PREEMERGENCE HERBICIDAL ACTIVITY (% CONTROL) ABUTH: 90%
[18]
  PREEMERGENCE HERBICIDAL ACTIVITY (% CONTROL) XANPE: 50%
[4]
  Postemergence herbicidal activity (% control) ABUTH: 100%
[5]
  Postemergence herbicidal activity (% control) CRN: 60%
[6]
  Postemergence herbicidal activity (% control) SETVI: 90%
[7]
  PREEMERGENCE HERBICIDAL ACTIVITY (% CONTROL) IPOSS: 50%
[8]
  PREEMERGENCE HERBICIDAL ACTIVITY (% CONTROL) CRN: 30%
[9]
  Postemergence herbicidal activity (% control) SORHA: 60%
[11]
  Postemergence herbicidal activity (% control) IPOSS: 75%
[12]
  PREEMERGENCE HERBICIDAL ACTIVITY (% CONTROL) SOY: 40%
[13]
  Postemergence herbicidal activity (% control) WHT: 30%
[14]
  PREEMERGENCE HERBICIDAL ACTIVITY (% CONTROL) SETVI: 100%
[15]
  Postemergence herbicidal activity (% control) SOY: 60%
[16]
  PREEMERGENCE HERBICIDAL ACTIVITY (% CONTROL) SORHA: 60%
[17]
  PREEMERGENCE HERBICIDAL ACTIVITY (% CONTROL) STEME: 70%
